Source: patent US20250042895A1, “INHIBITORS OF ULK1 AND METHODS OF USE” (H. LEE MOFFITT CANCER CENTER AND RESEARCH INSTITUTE, INC., priority 2021, published 2025)

Assays:
[1] = target: T1, ULK1-nanoluc (Homo sapiens, UniProt O75385); test: NanoBRET target engagement in live cells; type: cell-based; settings: H2030 cells transfected with ULK1-nanoluc, Tracer K10, 2 hr
T1 construct: host or cells: H2030 cells (ATCC)
T1 sequence (O75385 1-1050): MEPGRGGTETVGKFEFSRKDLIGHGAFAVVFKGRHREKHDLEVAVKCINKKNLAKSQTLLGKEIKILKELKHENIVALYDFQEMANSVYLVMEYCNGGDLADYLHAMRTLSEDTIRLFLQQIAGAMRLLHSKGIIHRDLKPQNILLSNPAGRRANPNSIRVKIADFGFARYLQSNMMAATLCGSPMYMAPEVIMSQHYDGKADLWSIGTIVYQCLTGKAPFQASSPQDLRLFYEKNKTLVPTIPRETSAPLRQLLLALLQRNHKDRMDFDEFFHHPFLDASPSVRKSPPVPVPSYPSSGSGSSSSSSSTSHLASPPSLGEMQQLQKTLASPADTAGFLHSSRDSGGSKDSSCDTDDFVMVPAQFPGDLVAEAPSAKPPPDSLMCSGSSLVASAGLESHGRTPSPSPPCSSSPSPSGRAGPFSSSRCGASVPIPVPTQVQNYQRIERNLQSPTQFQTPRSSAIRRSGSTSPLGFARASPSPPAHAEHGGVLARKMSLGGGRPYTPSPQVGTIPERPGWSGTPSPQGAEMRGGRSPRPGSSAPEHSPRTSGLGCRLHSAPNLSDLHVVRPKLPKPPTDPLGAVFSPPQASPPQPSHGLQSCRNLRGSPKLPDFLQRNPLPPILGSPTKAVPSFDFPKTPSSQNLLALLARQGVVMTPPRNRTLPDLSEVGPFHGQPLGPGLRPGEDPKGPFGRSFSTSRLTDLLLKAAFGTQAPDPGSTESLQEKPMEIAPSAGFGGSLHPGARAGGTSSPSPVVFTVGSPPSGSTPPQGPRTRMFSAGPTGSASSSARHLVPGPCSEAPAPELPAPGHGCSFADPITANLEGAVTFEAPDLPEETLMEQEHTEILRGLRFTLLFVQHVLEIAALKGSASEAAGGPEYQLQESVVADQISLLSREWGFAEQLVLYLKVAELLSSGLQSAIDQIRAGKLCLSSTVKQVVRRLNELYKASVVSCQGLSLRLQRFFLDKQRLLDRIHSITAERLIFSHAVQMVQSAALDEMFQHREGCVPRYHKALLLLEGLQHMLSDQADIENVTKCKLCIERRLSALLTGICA

[2] = target: T2, GST-ULK1 (Homo sapiens, UniProt O75385); test: LanthaScreen ULK1 inhibitor assay; type: biochemical; settings: 5 nM GST-ULK1, 30 nM tracer, 20 μM ATP, 1 hr room temperature
T2 sequence (O75385 1-1050): T1 sequence (O75385 1-1050)

[3] = target: T3, ULK1 kinase domain (Homo sapiens, UniProt O75385); test: Differential scanning fluorimetry (thermal shift); type: binding; settings: 2 μM ULK1 kinase domain, 50 μM compound, vs DMSO reference
T3 construct: The protein expression construct of ULK1 kinase domain (1-283) was cloned; 6His-Sumo (N, cleaved yes); made in house; host or cells: E. coli BL21 star, co-expressed with lambda phosphatase
T3 sequence (O75385 1-283): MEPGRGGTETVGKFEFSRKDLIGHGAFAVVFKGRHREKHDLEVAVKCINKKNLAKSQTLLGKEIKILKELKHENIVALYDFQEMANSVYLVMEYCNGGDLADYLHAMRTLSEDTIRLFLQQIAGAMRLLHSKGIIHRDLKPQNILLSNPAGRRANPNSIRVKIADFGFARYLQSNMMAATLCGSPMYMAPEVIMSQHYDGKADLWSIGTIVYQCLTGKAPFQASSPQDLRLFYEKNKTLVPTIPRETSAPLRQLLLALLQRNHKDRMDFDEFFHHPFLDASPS

[4] = target: T4, ULK1 kinase (Homo sapiens, UniProt O75385); test: Radiometric HotSpot kinase assay (Reaction Biology); type: biochemical; settings: activity-based ULK1 kinase assay
T4 construct: purchased Reaction Biology
T4 sequence (O75385 1-1050): T1 sequence (O75385 1-1050)

Structure (SMILES)	EC50 [1] [nM]	IC50 [2] [nM]	ΔTm at 50 µM [3] [°C]	IC50 [4] [nM]
C[C@@H](CO)NC(=O)c1cc(-c2cnc3[nH]c(C4=CCCNC4)cc3c2)cs1 [Compound 102]	952	15		
FC1(F)CN(c2c(C(F)(F)F)cnc3[nH]c(C4=CCNC4)cc23)C1 [Compound 140]	86	1		
C[C@@H](CO)NC(=O)c1cc(-c2cnc3[nH]c(C4=CCNC4)cc3c2)cs1 [Compound 104]	4290	29		
CN1CC=C(c2cc3c(N4CC(F)(F)C4)c(C(F)(F)F)cnc3[nH]2)CC1 [Compound 100, 4-(3,3-difluoroazetidin-1-yl)-2-(1-methyl-1,2,3,6-tetrahydropyridin-4-yl)-5-(trifluoromethyl)-1H-pyrrolo[2,3-b]pyridine]		218	4.99	171
FC1(F)CCN(c2c(C(F)(F)F)cnc3[nH]c(C4=CCOCC4)cc23)CC1 [Compound 93, 4-(4,4-Difluoropiperidin-1-yl)-2-(3,6-dihydro-2H-pyran-4-yl)-5-(trifluoromethyl)-1H-pyrrolo[2,3-b]pyridine]		8280	2.03	7070
CN1CCC(c2cc3c(NCCN4CCOCC4)c(C(F)(F)F)cnc3[nH]2)CC1 [Compound 95, 2-(1-methylpiperidin-4-yl)-N-(2-morpholinoethyl)-5-(trifluoromethyl)-1H-pyrrolo[2,3-b]pyridin-4-amine]		917	0.49	758
O=C(NC[C@@H](O)CO)c1cccc(-c2cnc3[nH]c(-c4ccc(F)cc4)cc3c2)n1 [Compound 52, (R)—N-(2,3-Dihydroxypropyl)-6-(2-(4-fluorophenyl)-1H-pyrrolo[2,3-b]pyridin-5-yl)-picolinamide]		106	8.86	45
C[C@H](CO)NC(=O)c1nc(-c2cnc3[nH]c(-c4ccc(F)cc4)cc3c2)cs1 [Compound 77, (R)-4-(2-(4-fluorophenyl)-1H-pyrrolo[2,3-b]pyridin-5-yl)-N-(1-hydroxypropan-2-yl)thiazole-2-carboxamide]		741	4.54	348
Fc1ccc(-c2cc3c(NCC(F)(F)F)c(C(F)(F)F)cnc3[nH]2)cc1 [Compound 81, 2-(4-fluorophenyl)-N-(2,2,2-trifluoroethyl)-5-(trifluoromethyl)-1H-pyrrolo[2,3-b]pyridin-4-amine]		14	5.41	15
O=C(NC(CO)CO)c1cccc(-c2cnc3[nH]c(-c4ccc(F)cc4)cc3c2)c1 [Compound 49, N-(1,3-Dihydroxypropan-2-yl)-3-(2-(4-fluorophenyl)-1H-pyrrolo[2,3-b]pyridin-5-yl)benzamide]		543	5.11	341
O=C(NCC(O)C(F)(F)F)c1cccc(-c2cnc3[nH]c(-c4ccc(F)cc4)cc3c2)n1 (stereo not drawn) [Compound 57, 6-(2-(4-Fluorophenyl)-1H-pyrrolo[2,3-b]pyridin-5-yl)-N-(3,3,3-trifluoro-2-hydroxy-propyl)picolinamide]		20	8.73	49
FC(F)(F)c1cnc2[nH]c(C3CCOCC3)cc2c1NCCN1CCOCC1 [Compound 88, N-(2-morpholinoethyl)-2-(tetrahydro-2H-pyran-4-yl)-5-(trifluoromethyl)-1H-pyrrolo-[2,3-b]pyridin-4-amine]		4520	2.37	4450
FC(F)(F)c1cnc2[nH]c(C3CCOCC3)cc2c1NCCCN1CCCC1 [Compound 90, N-(3-(pyrrolidin-1-yl)propyl)-2-(tetrahydro-2H-pyran-4-yl)-5-(trifluoromethyl)-1H-pyrrolo[2,3-b]pyridin-4-amine]		145	9.23	155
CC[C@H](CO)NC(=O)c1cccc(-c2cnc3[nH]c(-c4ccc(F)cc4)cc3c2)c1 [Compound 53, (R)-3-(2-(4-Fluorophenyl)-1H-pyrrolo[2,3-b]pyridin-5-yl)-N-(1-hydroxybutan-2-yl)benzamide]		94	3.11	66
FC(F)(F)c1cnc2[nH]c(C3=CCOCC3)cc2c1NCCCN1CCCC1 [Compound 91, 2-(3,6-dihydro-2H-pyran-4-yl)-N-(3-(pyrrolidin-1-yl)propyl)-5-(trifluoromethyl)-1H-pyrrolo[2,3-b]pyridin-4-amine]		167	9.77	110
FC(F)(F)c1cnc2[nH]c(C3CCOCC3)cc2c1NC1CCNC1 (stereo not drawn) [Compound 83, N-(pyrrolidin-3-yl)-2-(tetrahydro-2H-pyran-4-yl)-5-(trifluoromethyl)-1H-pyrrolo[2,3-b]-pyridin-4-amine]		208	6.81	401
O=C(NCC(O)C(F)(F)F)c1cccc(-c2cnc3[nH]c(-c4ccc(F)cc4)cc3c2)c1 (stereo not drawn) [Compound 50, 3-(2-(4-Fluorophenyl)-1H-pyrrolo[2,3-b]pyridin-5-yl)-N-(3,3,3-trifluoro-2-hydroxy-propyl)benzamide]		86	4.4	91
Fc1ccc(-c2cc3c(NC4CCC4)c(C(F)(F)F)cnc3[nH]2)cc1 [Compound 82, N-cyclobutyl-2-(4-fluorophenyl)-5-(trifluoro-methyl)-1H-pyrrolo[2,3-b]pyridin-4-amine]		24	4.39	9
FC(F)(F)c1cnc2[nH]c(C3=CCOCC3)cc2c1NC1CCNC1 (stereo not drawn) [Compound 84, 2-(3,6-dihydro-2H-pyran-4-yl)-N-(pyrrolidin-3-yl)-5-(trifluoromethyl)-1H-pyrrolo[2,3-b]pyridin-4-amine]		412	7.13	549
CS(=O)(=O)N1CCN(C(=O)c2cc(-c3cnc4[nH]c(-c5ccc(F)cc5)cc4c3)cs2)CC1 [Compound 29, (4-(2-(4-Fluorophenyl)-1H-pyrrolo[2,3-b]pyridin-5-yl)thiophen-2-yl)(4-(methyl-sulfonyl)piperazin-1-yl)methanone]		1230	0.9	938
CN1CC=C(c2cc3c(NCCN4CCOCC4)c(C(F)(F)F)cnc3[nH]2)CC1 [Compound 99, 2-(1-methyl-1,2,3,6-tetrahydropyridin-4-yl)-N-(2-morpholinoethyl)-5-(trifluoromethyl)-1H-pyrrolo[2,3-b]pyridin-4-amine]		374	7.77	625
CC(C)(C)OC(=O)N1CCC=C(c2cc3cc(-c4csc(C(=O)NCC(F)(F)F)c4)cnc3[nH]2)C1 [Compound 41, tert-Butyl 5-(5-(5-((2,2,2-trifluoroethyl)carbamoyl)thiophen-3-yl)-1H-pyrrolo[2,3-b]-pyridin-2-yl)-3,6-dihydropyridine-1(2H)-carboxylate]		75	9.89	333
CC[C@H](CO)NC(=O)c1cccc(-c2cnc3[nH]c(-c4ccc(F)cc4)cc3c2)n1 [Compound 56, (R)-6-(2-(4-Fluorophenyl)-1H-pyrrolo[2,3-b]pyridin-5-yl)-N-(1-hydroxybutan-2-yl)-picolinamide]		80	6.85	72
CN1CC=C(c2cc3c(NCCCN4CCCC4)c(C(F)(F)F)cnc3[nH]2)CC1 [Compound 97, 2-(1-methyl-1,2,3,6-tetrahydropyridin-4-yl)-N-(3-(pyrrolidin-1-yl)propyl)-5-(trifluoro-methyl)-1H-pyrrolo[2,3-b]pyridin-4-amine]		541	7.07	2380
